Measurements published in US20070207201A1, “Liquid and Semi-Solid Pharmaceutical Formulations and Processes” (Wyeth, priority 2006, published 2007).
One block for each molecule: values may come before it.

Experiments:
Assay type in all cases: physicochemical
[1] = Chemical stability of the crystal forms on storage (HPLC); conditions: non-micronized, 40° C./75% RH (monohydrate also 40° C. without humidity control), three months
Protocol: (§1) Non-micronized samples of monohydrate and anhydrate were stored at 40° C./75% RH for three months. The monohydrate was also stored at 40° C. without humidity control. During the three months, the samples were checked after two weeks, one month, two months, and three months.

[2] = Stability studies of the two crystal forms (crystal form by XRPD/TGA); conditions: for Long term stability of crystal form (XRPD and TGA): non-micronized, three months
Protocol: Samples of monohydrate were stored at room temperature, 56° C., and 70° C. for one week. At room temperature, humidity was maintained at 0% RH. Humidity was not controlled for the higher temperatures.
The samples were analyzed by XRPD and TGA.
as §1

[3] = Water solubility of the two crystal forms; conditions: for solubility: water, thermodynamic from solid
[4] = Dynamic vapor sorption (hygroscopicity) of the two crystal forms; conditions: for DVS weight gain: 0–90% RH
Text: Dynamic Vapor Sorption (Allentown, Pa.) was used to measure the hygroscopicity of the anhydrate and monohydrate of the invention (see FIGS. 6 and 7). The step conditions were three hours each at 0%, 30%, 52.5%, 75% and 90% RH, two full cycles.

[5] = Stability studies of the two crystal forms (crystal form by XRPD/TGA)

Long term chemical stability (HPLC) [1]: chemically stable
Long term stability of crystal form (XRPD and TGA) ([2]; 40° C./75% RH): did not transform
solubility ([3]; pH 7.29, water): 10 µg/mL
solubility ([3]; pH 7.7, water, pH 7.70): 12.8 µg/mL
Hygroscopicity (from DVS data) [4]: largely non-hygroscopic
DVS weight gain [4]: 0.2% gain (0–90%
Long term stability of crystal form (XRPD) ([5]; micronized, 25° C./60% RH, three months): did not transform to the monohydrate
Long term stability of crystal form (XRPD) ([5]; micronized, 40° C./75% RH, after one month): partially transform to the monohydrate
Long term stability of crystal form (XRPD) ([5]; non-micronized, 40° C./75% RH, separate study): did not show any obvious transformation
SMILES: C=Cc1cc(O)cc2nc(-c3ccc(O)c(F)c3)oc12 [Anhydrate, 2-(3-fluoro-4-hydroxyphenyl)-7-vinyl-1,3-benzoxazol-5-ol]

Long term chemical stability (HPLC) [1]: chemically stable
Medium term stability of crystal form (XRPD and TGA) ([2]; 56° C., humidity not controlled, one week): no obvious dehydration
Medium term stability of crystal form (XRPD and TGA) ([2]; 70° C., humidity not controlled, after 1 day): no obvious hydration
Medium term stability of crystal form (XRPD and TGA) ([2]; 70° C., humidity not controlled, after 4 days): partially dehydrated
Medium term stability of crystal form (XRPD and TGA) ([2]; 70° C., humidity not controlled, after 7 days): mostly dehydrated
Long term stability of crystal form (XRPD and TGA) ([2]; 40° C. without humidity control): did not transform
Long term stability of crystal form (XRPD and TGA) ([2]; 40° C./75% RH): did not transform
Medium term stability of crystal form (XRPD and TGA) ([2]; room temperature, 0% RH, one week): no obvious dehydration
solubility ([3]; pH 7.11, water): 2.34 µg/mL
solubility ([3]; pH 7.51, water): 2.21 µg/mL
Hygroscopicity (from DVS data) [4]: largely non-hygroscopic
DVS weight gain [4]: 0.1% gain (0–90% RH)
Short term stability of crystal form (XRPD) ([5]; 70° C. for one hour): stable
Short term stability of crystal form (XRPD) ([5]; 90° C. after one half hour): partially dehydrated
Short term stability of crystal form (XRPD) ([5]; 90° C. after one hour): completely dehydrated
SMILES: C=Cc1cc(O)cc2nc(-c3ccc(O)c(F)c3)oc12 [Monohydrate, 2-(3-fluoro-4-hydroxyphenyl)-7-vinyl-1,3-benzoxazol-5-ol]
Water solubility compared between the two forms [3]: significantly lower solubility than the anhydrate
